Assay results: PubChem BioAssay AID256 (DTP/NCI, 2004)
Where “and” joins values, the source holds several entries; their conditions need not be identical. Identical values can stand only once. Toxic doses and inconclusive results are not listed.

Test system: CD2F1 mice, L1210 leukemia ip, survival T/C
Test: NCI In Vivo Anticancer Drug Screen. Data for tumor model L1210 Leukemia (intraperitoneal) in CD2F1 (CDF1) mice
Conditions: endpoint: mean survival time, higher = longer survival
In short: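 Implant tumor; dose compound or vehicle; measure endpoint in both groups; report treated divided by control.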

[1] = dose: 100.0 mg/kg/injection, schedule: Q01DX009 (ip), vehicle: saline with Tween-80
[2] = dose: 400.0 mg/kg/injection, schedule: Q01DX009 (ip), vehicle: saline with Tween-80

## COc1cc2cc3c4ccc(OC)c(OC)c4cc[n+]3c(C)c2cc1OC (tested in a mixture with another compound)
dose: 6.25 mg/kg/injection, schedule: Q01DX009 (ip), vehicle: other
  T/C: 108 % of control
dose: 12.5 mg/kg/injection, schedule: Q01DX009 (ip), vehicle: other
  T/C: 106 % of control
dose: 25.0 mg/kg/injection, schedule: Q01DX009 (ip), vehicle: other
  T/C: 116 % of control
dose: 50.0 mg/kg/injection, schedule: Q01DX009 (ip), vehicle: other
  T/C: 97 % of control

## C1C[N-]CC[N-]CC[N-]CC[N-]1.[Cl][Rh][Cl]
dose: 1.56 mg/kg/injection, schedule: Q01DX009 (ip), vehicle: saline
  T/C: 100 % of control
dose: 3.13 mg/kg/injection, schedule: Q01DX009 (ip), vehicle: saline
  T/C: 102 % of control
dose: 6.25 mg/kg/injection, schedule: Q01DX009 (ip), vehicle: saline
  T/C: 100 % of control
dose: 12.5 mg/kg/injection, schedule: Q01DX009 (ip), vehicle: saline
  T/C: 98 % of control and 108 % of control

## COc1cc2c(cc1OC)-c1c(cnn1C1OC(COC(C)=O)C(OC(C)=O)C(OC(C)=O)C1OC(C)=O)CC2 (stereo not given)
dose: 12.5 mg/kg/injection, schedule: Q01DX005 (ip), vehicle: other
  T/C: 103 % of control
dose: 25.0 mg/kg/injection, schedule: Q01DX005 (ip), vehicle: other
  T/C: 93 % of control
dose: 50.0 mg/kg/injection, schedule: Q01DX005 (ip), vehicle: other
  T/C: 90 % of control
dose: 100.0 mg/kg/injection, schedule: Q01DX005 (ip), vehicle: other
  T/C: 87 % of control

## CCCC(=O)NN=C(C)C
dose: 12.5 mg/kg/injection, schedule: Q04DX003 (ip), vehicle: saline
  T/C: 105 % of control
dose: 25.0 mg/kg/injection, schedule: Q04DX003 (ip), vehicle: saline
  T/C: 104 % of control
dose: 50.0 mg/kg/injection, schedule: Q04DX003 (ip), vehicle: saline
  T/C: 107 % of control

## OC12Cc3ccccc3C1=NN(c1ccccc1)C2c1ccccc1 (stereo not given)
[1]
  T/C: 91 % of control
[2]
  T/C: 86 % of control

## C/C(=N/Nc1ccc([N+](=O)[O-])cc1[N+](=O)[O-])c1ccccc1
[1]
  T/C: 91 % of control
dose: 200.0 mg/kg/injection, schedule: Q01DX009 (ip), vehicle: saline with Tween-80
  T/C: 97 % of control
[2]
  T/C: 100 % of control

## O=C(/C=C/c1ccco1)c1cccnc1
dose: 100.0 mg/kg/injection, schedule: Q01DX001 (ip), vehicle: saline
  T/C: 94 % of control
dose: 200.0 mg/kg/injection, schedule: Q01DX001 (ip), vehicle: saline
  T/C: 100 % of control
dose: 400.0 mg/kg/injection, schedule: Q01DX001 (ip), vehicle: saline
  T/C: 100 % of control

## CC([NH-])CC(C)[NH-].[Br][Pt+2][Br] (stereo not given)
dose: 3.12 mg/kg/injection, schedule: Q04DX003 (ip), vehicle: saline with Tween-80
  T/C: 120 % of control and 124 % of control
dose: 12.5 mg/kg/injection, schedule: Q04DX003 (ip), vehicle: saline with Tween-80
  T/C: 150 % of control

## OCc1ccc2c(n1)COC(c1ccccc1)O2 (stereo not given)
dose: 100.0 mg/kg/injection, schedule: Q04DX002 (ip), vehicle: Klucel (hydroxypropylcellulose) (HPC)
  T/C: 102 % of control
dose: 200.0 mg/kg/injection, schedule: Q04DX002 (ip), vehicle: Klucel (hydroxypropylcellulose) (HPC)
  T/C: 94 % of control
dose: 400.0 mg/kg/injection, schedule: Q04DX002 (ip), vehicle: Klucel (hydroxypropylcellulose) (HPC)
  T/C: 94 % of control

## O=C(CCCCCNC(=O)OCc1ccccc1)Oc1ccc([N+](=O)[O-])cc1
dose: 100.0 mg/kg/injection, schedule: Q04DX003 (ip), vehicle: saline with Tween-80
  T/C: 101 % of control
dose: 200.0 mg/kg/injection, schedule: Q04DX003 (ip), vehicle: saline with Tween-80
  T/C: 96 % of control
dose: 400.0 mg/kg/injection, schedule: Q04DX003 (ip), vehicle: saline with Tween-80
  T/C: 94 % of control

## O=C(N/N=C/c1ccccc1)c1ccc(Cl)cc1Cl
dose: 100.0 mg/kg/injection, schedule: Q01DX001 (ip), vehicle: Klucel (hydroxypropylcellulose) (HPC)
  T/C: 100 % of control
dose: 100.0 mg/kg/injection, schedule: Q01DX009 (ip), vehicle: Klucel (hydroxypropylcellulose) (HPC)
  T/C: 100 % of control
dose: 200.0 mg/kg/injection, schedule: Q01DX001 (ip), vehicle: Klucel (hydroxypropylcellulose) (HPC)
  T/C: 97 % of control
dose: 200.0 mg/kg/injection, schedule: Q01DX009 (ip), vehicle: Klucel (hydroxypropylcellulose) (HPC)
  T/C: 94 % of control
dose: 400.0 mg/kg/injection, schedule: Q01DX001 (ip), vehicle: Klucel (hydroxypropylcellulose) (HPC)
  T/C: 101 % of control
dose: 400.0 mg/kg/injection, schedule: Q01DX009 (ip), vehicle: Klucel (hydroxypropylcellulose) (HPC)
  T/C: 91 % of control

## CC(C)C1C=CC(C)(/C=C/N2CCCC2)CC1 (stereo not given)
dose: 75.0 mg/kg/injection, schedule: Q01DX001 (ip), vehicle: other
  T/C: 98 % of control
dose: 150.0 mg/kg/injection, schedule: Q01DX001 (ip), vehicle: other
  T/C: 98 % of control
dose: 300.0 mg/kg/injection, schedule: Q01DX001 (ip), vehicle: other
  T/C: 102 % of control
